{
  "source": "patent US20230348376A1",
  "about": "(TEIJIN PHARMA LIMITED, priority 2020, published 2023)",
  "key": {"[1]": {"test_system": "rat oligodendrocyte progenitor cells", "test": "Promotive activity of rat oligodendrocyte progenitor cell differentiation-1 (MBP gene expression, mRNA)", "assay_type": "cell-based", "details": "Rattus norvegicus, Oligodendrocyte progenitor cell, 96 h, read-out: promotive activity at T3 base (MBP gene expression; DMSO 0%, T3 100%), 4 days, MBP/β actin mRNA", "method_in_brief": "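Primary OPCs from 1-day-old SD rat forebrain, isolated by shaking off mixed glial cultures and seeded at 2×10^3 cells/well in B27/CNTF (10 ng/mL) differentiation medium with compound. MBP mRNA measured by one-step TaqMan real-time PCR and expressed as MBP/β-actin ratio.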"}, "[2]": {"test_system": "mouse neural stem cells (NSCs)", "test": "Promoting activity in oligodendrocyte differentiation of mouse neural stem cell (GalC immunostaining)", "assay_type": "cell-based", "details": "day 10, N=5", "description": "To NSC basal medium (100 mL) included in this product, B27 (1 mL), Penicillin-Streptomycin (1 mL), Glutamine (1 mL), bFGF (20 μL), EGF (10 μL), and Heparin (100 μL) were added to prepare the growth medium. Mouse neural stem cells were reconstituted in a T-25 flask using the growth medium and proliferated as a neurosphere by suspension culture. The cells were expanded by passaging at a split ratio=1:2 in a CO2 incubator (5% CO2, 37° C., wet) to obtain the required number of cells. ACCUTASE (Innovative Cell Technologies, Cat. No. AT104) was used as the passage reagent.\nThe differentiation medium containing test substance was prepared to a target final concentration by diluting a solution of 20 mM compound in DMSO to 10-fold with DMSO and then to 2×10^5-fold with the differentiation medium. Additive-free differentiation medium for control was prepared by diluting DMSO to 2×10^5-fold with the differentiation medium to be a final concentration of 5×10^−5%.\nThe mouse neural stem cells were seeded on a poly-L-Lysine/Laminin-coated 96-well plate at a cell density of 2.0×10^4 cells/100 μL/well using the differentiation medium and the culture was started in a CO2 incubator (5% CO2, 37° C., wet). The next day, the medium was replaced with the differentiation medium containing a test substance or an additive-free differentiation medium for control, and evaluation of the test substance (N=5) was started (day 0). The medium was replaced every other day by 60% of the medium in the wells. On day 10, cells were fixed and immunostained.\nAfter the medium was removed, the cells were fixed by adding 100 μL of 4% paraformaldehyde-PBS and being incubated at room temperature for 30 minutes. Next, the cells were washed 3 times with PBS, 100 μL of 5% Goat Serum/PBS was added thereto, and the mixture was incubated at room temperature for 30 minutes to perform blocking and membrane permeation treatment. […] After the cells were washed 3 times with PBS, 100 μL of PBS was added to the wells, and the wells were photographed with fluorescence microscopy. Images were taken under the same condition in all wells, and blue fluorescence and green fluorescence were simultaneously photographed.\nUsing the hybrid cell counting software provided in the fluorescence microscope (Keyence, BZ-X700), co-localized spots of green fluorescence and blue fluorescence were extracted, and the number of these spots was defined as the total number of GalC-positive cells, and the oligodendrocyte differentiation ratio was calculated by the following calculation:the total number of GalC-positive cells/the number of nuclei (number of blue fluorescence spots). A significant difference test was performed by t-test between the additive-free group and the sample-added group."}},
  "data": [
    {"smiles": "C[C@H](CCN1CCOCC1)[C@H]1CC[C@H]2/C(=C/C=C3C[C@@H](O)C[C@H](O)C3)CCC[C@]12C", "note": "[Compound D023, (1R,3R)-5-(2-((1R,3aS,7aR,E)-7a-methyl-1-((R)-4-morpholinobutan-2-yl)octahydro-4H-inden-4-ylidene)ethylidene)cyclohexane-1,3-diol]", "values": [
      {"measurement": "activation at 1 µM", "setting": "[1]", "result": "≥ 20", "unit": "%"},
      {"measurement": "Gal/C positive ratio Average value", "setting": "[2]; 10 nM", "result": 8.63},
      {"measurement": "Gal/C positive ratio Average value", "setting": "[2]; 100 nM", "result": 11.51},
      {"measurement": "Gal/C positive ratio Average value", "setting": "[2]; 1000 nM", "result": 12.19}
    ]}
  ]
}
